From PubChem BioAssay (NCI)
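These data come from cells grown in 96-well plates and exposed to compound for 48 hours at five concentrations. Here, GI50 denotes the concentration required for 50% inhibition of growth. At the TGI there is no net growth.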

Legend:
Assay in all cases: NCI tumour cell line growth inhibition, 48 h
HT29 colon = tested on: HT29 colon
LOX IMVI melanoma = tested on: LOX IMVI melanoma
K-562 leukemia = tested on: K-562 leukemia
OVCAR-4 ovarian = tested on: OVCAR-4 ovarian
HCT-116 colon = tested on: HCT-116 colon
M14 melanoma = tested on: M14 melanoma
UACC-62 melanoma = tested on: UACC-62 melanoma
SK-MEL-5 melanoma = tested on: SK-MEL-5 melanoma
NCI-H23 lung = tested on: NCI-H23 lung
CAKI-1 renal = tested on: CAKI-1 renal

CN(C)CC1(C)CC/C(=C\c2ccccc2)C1=O (centres undefined)
TGI (HT29 colon): > 100 µM
TGI (LOX IMVI melanoma): > 100 µM
TGI (K-562 leukemia): > 100 µM
TGI (OVCAR-4 ovarian): > 100 µM
TGI (HCT-116 colon): > 100 µM
TGI (M14 melanoma): > 100 µM
TGI (UACC-62 melanoma): > 100 µM
TGI (SK-MEL-5 melanoma): > 100 µM
TGI (NCI-H23 lung): > 100 µM
TGI (CAKI-1 renal): > 100 µM

Cc1ccc(S(=O)(=O)N2CCc3ccc(O)c4c3C2Cc2cc(Cl)ccc2-4)cc1 (centres undefined)
GI50 (HT29 colon): 5.61 µM
TGI (HT29 colon): 10.8 µM
GI50 (LOX IMVI melanoma): 1.84 µM
TGI (LOX IMVI melanoma): 6.02 µM
GI50 (K-562 leukemia): 1.16 µM
TGI (K-562 leukemia): 14.8 µM
GI50 (OVCAR-4 ovarian): 1.53 µM
TGI (OVCAR-4 ovarian): 7.51 µM
GI50 (HCT-116 colon): 1.11 µM
TGI (HCT-116 colon): 4.38 µM
GI50 (M14 melanoma): 0.88 µM
TGI (M14 melanoma): 2.96 µM
GI50 (UACC-62 melanoma): 0.962 µM
TGI (UACC-62 melanoma): 3.77 µM
GI50 (SK-MEL-5 melanoma): 1.55 µM
TGI (SK-MEL-5 melanoma): 5.1 µM
GI50 (NCI-H23 lung): 0.864 µM
TGI (NCI-H23 lung): 3.28 µM
GI50 (CAKI-1 renal): 1.3 µM
TGI (CAKI-1 renal): 16.9 µM

O=C(Nc1c(O)[nH]c(=S)[nH]c1=O)c1ccc2ccccc2n1
TGI (HT29 colon): > 100 µM
TGI (LOX IMVI melanoma): > 100 µM
TGI (K-562 leukemia): > 100 µM
TGI (OVCAR-4 ovarian): > 100 µM
TGI (HCT-116 colon): > 100 µM
TGI (M14 melanoma): > 100 µM
TGI (UACC-62 melanoma): > 100 µM
TGI (SK-MEL-5 melanoma): > 100 µM
TGI (NCI-H23 lung): > 100 µM
TGI (CAKI-1 renal): > 100 µM

COc1ccc(-c2nc(-c3nc4ccc(OC)cc4[nH]3)cc3c2[nH]c2ccccc23)cc1
GI50 (HT29 colon): 3.46 µM
TGI (HT29 colon): > 100 µM
GI50 (LOX IMVI melanoma): 3.14 µM
TGI (LOX IMVI melanoma): > 100 µM
GI50 (K-562 leukemia): 1.52 µM
TGI (K-562 leukemia): > 100 µM
GI50 (OVCAR-4 ovarian): > 100 µM
TGI (OVCAR-4 ovarian): > 100 µM
GI50 (HCT-116 colon): 2.48 µM
TGI (HCT-116 colon): > 100 µM
GI50 (M14 melanoma): 3.34 µM
TGI (M14 melanoma): > 100 µM
GI50 (UACC-62 melanoma): 2.75 µM
TGI (UACC-62 melanoma): > 100 µM
GI50 (SK-MEL-5 melanoma): 2.18 µM
TGI (SK-MEL-5 melanoma): > 100 µM
GI50 (NCI-H23 lung): 5.8 µM
TGI (NCI-H23 lung): > 100 µM
GI50 (CAKI-1 renal): 6.07 µM
TGI (CAKI-1 renal): > 100 µM

COP1(=O)Oc2ccccc2C(=O)C(C(F)(F)F)(C(F)(F)F)O1 (centres undefined)
TGI (HT29 colon): > 100 µM
TGI (LOX IMVI melanoma): > 100 µM
TGI (K-562 leukemia): > 100 µM
TGI (OVCAR-4 ovarian): > 100 µM
TGI (HCT-116 colon): > 100 µM
TGI (M14 melanoma): > 100 µM
TGI (UACC-62 melanoma): > 100 µM
TGI (SK-MEL-5 melanoma): > 100 µM
TGI (NCI-H23 lung): > 100 µM
TGI (CAKI-1 renal): > 100 µM

O=c1cnn2c(n1)sc1ccc3ccccc3c12
TGI (HT29 colon): > 100 µM
TGI (LOX IMVI melanoma): > 100 µM
TGI (K-562 leukemia): > 100 µM
TGI (OVCAR-4 ovarian): > 100 µM
TGI (HCT-116 colon): > 100 µM
TGI (M14 melanoma): > 100 µM
TGI (UACC-62 melanoma): > 100 µM
TGI (SK-MEL-5 melanoma): > 100 µM
TGI (NCI-H23 lung): > 100 µM
TGI (CAKI-1 renal): > 100 µM

Cc1ccc(Cl)c(NC(=O)C(=O)C(C(=O)c2ccncc2)C2OC(=O)c3ccccc32)c1 (centres undefined)
TGI (HT29 colon): > 100 µM
TGI (LOX IMVI melanoma): > 100 µM
TGI (K-562 leukemia): > 100 µM
TGI (OVCAR-4 ovarian): > 100 µM
TGI (HCT-116 colon): > 100 µM
TGI (M14 melanoma): > 100 µM
TGI (UACC-62 melanoma): > 100 µM
TGI (SK-MEL-5 melanoma): > 100 µM
TGI (NCI-H23 lung): > 100 µM
TGI (CAKI-1 renal): > 100 µM

COc1ccc(NC(=O)c2sc3nc(C)c(C(O)c4ccccc4)cc3c2N)cc1 (centres undefined)
GI50 (HT29 colon): 2.81 µM
TGI (HT29 colon): 88.8 µM
GI50 (LOX IMVI melanoma): 4.25 µM
TGI (LOX IMVI melanoma): > 100 µM
GI50 (K-562 leukemia): 1.01 µM
TGI (K-562 leukemia): > 100 µM
GI50 (OVCAR-4 ovarian): 3.72 µM
TGI (OVCAR-4 ovarian): > 100 µM
GI50 (HCT-116 colon): 2.71 µM
TGI (HCT-116 colon): > 100 µM
GI50 (M14 melanoma): 2.52 µM
TGI (M14 melanoma): 38.3 µM
GI50 (UACC-62 melanoma): 2.93 µM
TGI (UACC-62 melanoma): > 100 µM
GI50 (SK-MEL-5 melanoma): 1.66 µM
TGI (SK-MEL-5 melanoma): 4.04 µM
GI50 (NCI-H23 lung): 3.48 µM
TGI (NCI-H23 lung): > 100 µM
GI50 (CAKI-1 renal): 3.52 µM
TGI (CAKI-1 renal): > 100 µM

Nc1ncnc2c1ncn2C1OC(CO)=CC1O (centres undefined)
TGI (HT29 colon): > 37.5 µM
TGI (LOX IMVI melanoma): > 37.5 µM
TGI (K-562 leukemia): > 37.5 µM
TGI (OVCAR-4 ovarian): > 37.5 µM
TGI (HCT-116 colon): > 37.5 µM
TGI (M14 melanoma): > 37.5 µM
TGI (UACC-62 melanoma): > 37.5 µM
TGI (SK-MEL-5 melanoma): > 37.5 µM
TGI (NCI-H23 lung): > 37.5 µM
TGI (CAKI-1 renal): > 37.5 µM

O=C(O)CC/C(=N\Nc1nsc2ccccc12)c1ccc(Cl)cc1
TGI (HT29 colon): > 78.1 µM
TGI (LOX IMVI melanoma): 25.7 µM
TGI (K-562 leukemia): > 100 µM
TGI (OVCAR-4 ovarian): > 80.2 µM
TGI (HCT-116 colon): 68.9 µM
TGI (M14 melanoma): > 65.8 µM
TGI (UACC-62 melanoma): 50.6 µM
TGI (SK-MEL-5 melanoma): > 31.6 µM
TGI (NCI-H23 lung): 59.2 µM
TGI (CAKI-1 renal): 52.2 µM

C[C@@H]1C=C2C(=O)O[C@@H]3CC[C@H](C1)[C@]23O
GI50 (HT29 colon): 3.46 µM
TGI (HT29 colon): 13.4 µM
GI50 (LOX IMVI melanoma): 3.33 µM
TGI (LOX IMVI melanoma): 13.3 µM
GI50 (K-562 leukemia): 2.7 µM
TGI (K-562 leukemia): 34.6 µM
GI50 (OVCAR-4 ovarian): 5.45 µM
TGI (OVCAR-4 ovarian): 45.3 µM
GI50 (HCT-116 colon): 3.13 µM
TGI (HCT-116 colon): 13.8 µM
GI50 (M14 melanoma): 4.28 µM
TGI (M14 melanoma): 22.8 µM
GI50 (UACC-62 melanoma): 4.78 µM
TGI (UACC-62 melanoma): 19.6 µM
GI50 (SK-MEL-5 melanoma): 10.9 µM
TGI (SK-MEL-5 melanoma): 24 µM
GI50 (NCI-H23 lung): 4.33 µM
TGI (NCI-H23 lung): 23 µM
TGI (CAKI-1 renal): 12.7 µM

Cc1cc(Cl)cc2c1NC(=O)C2(O)C(C)C(=O)c1ccc(Cl)cc1 (centres undefined)
TGI (HT29 colon): > 100 µM
TGI (LOX IMVI melanoma): > 100 µM
TGI (K-562 leukemia): > 100 µM
TGI (OVCAR-4 ovarian): 62.1 µM
TGI (HCT-116 colon): > 100 µM
TGI (M14 melanoma): > 100 µM
TGI (UACC-62 melanoma): 44 µM
TGI (SK-MEL-5 melanoma): > 64.7 µM
TGI (NCI-H23 lung): > 100 µM
TGI (CAKI-1 renal): > 100 µM

Cc1ccc(C)c(NC(=O)CC/C(=N\NC(=O)C(N)=O)C(C)C(=O)c2ccc(O)cc2)c1 (centres undefined)
TGI (HT29 colon): > 100 µM
TGI (LOX IMVI melanoma): > 100 µM
TGI (K-562 leukemia): > 100 µM
TGI (OVCAR-4 ovarian): > 100 µM
TGI (HCT-116 colon): > 100 µM
TGI (M14 melanoma): > 100 µM
TGI (UACC-62 melanoma): > 100 µM
TGI (SK-MEL-5 melanoma): > 100 µM
TGI (NCI-H23 lung): > 100 µM
TGI (CAKI-1 renal): > 100 µM

CCOC(=O)c1cn(Cc2ccccc2)c(=O)n1Cc1ccccc1
TGI (HT29 colon): > 100 µM
TGI (LOX IMVI melanoma): > 100 µM
TGI (K-562 leukemia): > 100 µM
TGI (OVCAR-4 ovarian): > 100 µM
TGI (HCT-116 colon): > 100 µM
TGI (M14 melanoma): > 100 µM
TGI (UACC-62 melanoma): > 100 µM
TGI (SK-MEL-5 melanoma): > 100 µM
TGI (NCI-H23 lung): > 100 µM
TGI (CAKI-1 renal): > 100 µM
